{"source": "patent US7531553B2", "about": "“Heterocyclic compounds and methods of use” (Amgen Inc., priority 2003, dated 2009)"}
{"system": "Human Umbilical Vein Endothelial cells", "test": "HUVEC proliferation assay (VEGF-stimulated)", "format": "cell-based", "details": "VEGF 50 ng/mL final, 72 h incubation, CyQuant dye, read-out: inhibited VEGF-stimulated HUVEC proliferation at a level (IC50)", "procedure": "Human Umbilical Vein Endothelial cells are purchased from Clonetics, Inc., as cryopreserved cells harvested from a pool of donors. These cells, at passage 1, are thawed and expanded in EBM-2 complete medium, until passage 2 or 3. The cells are trypsinized, washed in DMEM+10% FBS+antibiotics, and spun at 1000 rpm for 10 min. Prior to centrifugation of the cells, a small amount is collected for a cell count. After centrifugation, the medium is discarded, and the cells are resuspended in the appropriate volume of DMEM+10% FBS+antibiotics to achieve a concentration of 3×10^5 cells/mL. Another cell count is performed to confirm the cell concentration. The cells are diluted to 3×10^4 cells/mL in DMEM+10% FBS+antibiotics, and 100 μL of cells are added to a 96-well plate. The cells are incubated at 37° C. for 22 h.\nPrior to the completion of the incubation period, compound dilutions are prepared. Five-point, five-fold serial dilutions are prepared in DMSO, at concentrations 400-fold greater than the final concentrations desired. 2.5 μL of each compound dilution are diluted further in a total of 1 mL DMEM+10% FBS+antibiotics (400× dilution). Medium containing 0.25% DMSO is also prepared for the 0 μM compound sample. After 22-h, the medium is removed from the cells, and 100 μL of each compound dilution is added. The cells are incubated at 37° C. for 2-3 h.\nDuring the compound pre-incubation period, the growth factors are diluted to the appropriate concentrations. Solutions of DMEM+10% FBS+antibiotics, containing either VEGF or bFGF at the following concentrations: 50, 10, 2, 0.4, 0.08, and 0 ng/mL are prepared. For the compound-treated cells, solutions of VEGF at 550 ng/mL or bFGF at 220 ng/mL for 50 ng/mL or 20 ng/mL final concentrations, respectively, are prepared since 10 μL of each will be added to the cells (110 μL final volume). At the appropriate time after adding the compounds, the growth factors are added. VEGF is added to one set of plates, while bFGF is added to another set of plates. For the growth factor control curves, the media on wells B4-G6 of plates 1 and 2 are replaced with media containing VEGF or bFGF at the varying concentrations (50-0 ng/mL). The cells are incubated at 37° C. for an additional 72 h.\nAt the completion of the 72 h incubation period, the medium is removed, and the cells are washed twice with PBS. After the second wash with PBS, the plates are tapped gently to remove excess PBS, and the cells are placed at −70° C. for at least 30 min. […] Raw data are collected and analyzed using a 4-parameter fit equation in XLFit. IC50 values are then determined.", "units": {"IC50": "nM"}}
{"smiles": "CNC(=O)c1cc(Oc2ccc3[nH]c(Nc4ccc(C(F)(F)C(F)(F)F)c(OC[C@H]5CCCN5C)c4)nc3c2)ccn1", "note": "[Example 6, R-4-{2-[3-(1-Methyl-pyrrolidin-2-ylmethoxy)-4-pentafluoroethyl-phenylamino]-1H-benzimidazol-5-yloxy}-pyridine-2-carboxylic acid methylamide]", "IC50": "< 100"}
{"smiles": "CNC(=O)c1cc(Oc2ccc3[nH]c(Nc4ccc(C(F)(F)F)c(OCCN(C)C)c4)nc3c2)ccn1", "note": "[Example 13a]", "IC50": "< 100"}
{"smiles": "CNC(=O)c1cc(Oc2ccc3[nH]c(Nc4ccc(C(F)(F)F)c(OCC5CCCN5C)c4)nc3c2)ccn1", "note": "(stereo not shown) [Example 13c]", "IC50": "< 100"}
{"smiles": "CNC(=O)c1cc(Oc2ccc3c(c2)nc(Nc2ccc(Cl)c(CN4CCN(C)CC4)c2)n3C)ccn1", "note": "[Example 17, 4-{2-[4-Chloro-3-(4-methyl-piperazin-1-ylmethyl)-phenylamino]-1-methyl-1H-benzimidazol-5-yloxy}-pyridine-2-carboxylic acid methylamide]", "IC50": "< 100"}
{"smiles": "CN1CCN(Cc2cc(Nc3nc4cc(Oc5ccnc6ccccc56)ccc4[nH]3)ccc2Cl)CC1", "note": "[Example 28, [4-Chloro-3-(4-methyl-piperazin-1-ylmethyl)-phenyl]-[5-(quinolin-4-yloxy)-1H-benzimidazol-2-yl]-amine]", "IC50": "< 100"}
{"smiles": "CN1CCC[C@@H]1COc1cc(Nc2nc3cc(Oc4ccnc5ccccc45)ccc3[nH]2)ccc1C(F)(F)F", "note": "[Example 29, [3-(1-Methyl-pyrrolidin-2-ylmethoxy)-4-trifluoromethyl-phenyl]-[5-(quinolin-4-yloxy)-1H-benzimidazol-2-yl]-amine]", "IC50": "< 100"}
{"smiles": "CNC(=O)c1cc(Oc2ccc3oc(Nc4ccc(Cl)c(CN5CCN(C)CC5)c4)nc3c2)ccn1", "note": "[Example 32, 4-{2-[4-Chloro-3-(4-methyl-piperazin-1-ylmethyl)-phenylamino]-benzoxazol-5-yloxy}-pyridine-2-carboxylic acid methylamide]", "IC50": "< 100"}
{"smiles": "CNC(=O)c1cc(Oc2ccc3oc(Nc4ccc(Br)cc4)nc3c2)ccn1", "note": "[Example 38]", "IC50": "< 100"}
{"smiles": "CNC(=O)c1cc(Oc2ccc3oc(Nc4ccc(C(C)C)cc4)nc3c2)ccn1", "note": "[Example 39]", "IC50": "< 100"}
{"smiles": "COc1cc2nccc(Oc3ccc4oc(Nc5ccc(Cl)c(CN6CCN(C)CC6)c5)nc4c3)c2cc1OC", "note": "[Example 45, 5-((6,7-bis(Methoxy)-4-quinolinyl)oxy)-N-(4-chloro-3-((4-methyl-1-piperazinyl)methyl)phenyl)-1,3-benzoxazol-2-amine]", "IC50": "< 100"}
{"smiles": "CN1CCN(Cc2cc(Nc3nc4cc(Oc5ccnc6[nH]ccc56)ccc4o3)ccc2Cl)CC1", "note": "[Example 46, N-(4-Chloro-3-((4-methyl-1-piperazinyl)methyl)phenyl)-5-(1H-pyrrolo[2,3-b]pyridin-4-yloxy)-1,3-benzoxazol-2-amine]", "IC50": "< 100"}
{"smiles": "CN1CCC[C@H]1COc1cc(Nc2nc3cc(Oc4ccnc5[nH]ccc45)ccc3o2)ccc1Cl", "note": "[Example 47, N-(4-Chloro-3-(((2S)-1-methyl-2-pyrrolidinyl)methoxy)phenyl)-5-(1H-pyrrolo[2,3-b]pyridin-4-yloxy)-1,3-benzoxazol-2-amine]", "IC50": "< 100"}
{"smiles": "CNC(=O)c1cc(Oc2cc(F)c3oc(Nc4ccc(Cl)c(OC[C@@H]5CCCN5C)c4)nc3c2)ccn1", "note": "[Example 49, 4-((2-((4-Chloro-3-(((2S)-1-methyl-2-pyrrolidinyl)methoxy)phenyl)amino)-7-fluoro-1,3-benzoxazol-5-yl)oxy)-N-methyl-2-pyridinecarboxamide]", "IC50": "< 100"}
{"smiles": "COc1cc2nccc(Oc3ccc4[nH]c(Nc5ccc(Cl)c(CN6CCN(C)CC6)c5)nc4c3)c2cc1OC", "note": "[Example 236, [4-Chloro-3-(4-methylpiperazin-1-ylmethyl)-phenyl]-[5-(6,7-dimethoxyquinolin-4-yloxy)-1H-benzimidazol-2-yl]-amine]", "IC50": "< 100"}
{"smiles": "COc1cc2ncnc(Oc3ccc4[nH]c(Nc5ccc(Cl)cc5)nc4c3)c2cc1OC", "note": "[Example 237, (4-Chlorophenyl)-[5-(6,7-dimethoxyquinazolin-4-yloxy)-1H-benzimidazol-2-yl]-amine]", "IC50": "< 100"}
{"smiles": "COc1cc2ncnc(Oc3ccc4[nH]c(Nc5ccc(Cl)c(OCC6CCN(C)CC6)c5)nc4c3)c2cc1OC", "note": "[Example 238, [4-Chloro-3-(1-methylpiperidin-4-ylmethoxy)-phenyl]-[5-(6,7-dimethoxyquinazolin-4-yloxy)-1H-benzimidazol-2-yl]-amine]", "IC50": "< 100"}
{"smiles": "CNc1cc(Oc2ccc3oc(Nc4ccc(Cl)c(OC[C@@H]5CCCN5C)c4)nc3c2)ccn1", "note": "[Example 239, [4-Chloro-3-((2S)-1-methylpyrrolidin-2-ylmethoxy)-phenyl]-[5-(2-methylamino-pyridin-4-yloxy)-benzoxazol-2-yl]-amine]", "IC50": "< 100"}
{"smiles": "CN1CCC[C@H]1COc1cc(Nc2nc3cc(Oc4ccnc(C(N)=O)c4)ccc3o2)ccc1Cl", "note": "[Example 240, 4-{2-[4-Chloro-3-((2S)-1-methylpyrrolidin-2-ylmethoxy)-phenylamino]-benzoxazol-5-yloxy}-pyridine-2-carboxylic acid amide]", "IC50": "< 100"}
{"smiles": "CNC(=O)c1cc(Oc2ccc3oc(Nc4ccc(Cl)c(OCC5CCN(C)CC5)c4)nc3c2)ccn1", "note": "[Example 242, 4-{2-[4-Chloro-3-(1-methylpiperidin-4-ylmethoxy)-phenylamino]-benzoxazol-5-yloxy}-pyridine-2-carboxylic acid methylamide]", "IC50": "< 100"}
{"smiles": "CNC(=O)c1cc(Oc2ccc3oc(Nc4ccc(Cl)c(OCC5CCNCC5)c4)nc3c2)ccn1", "note": "[Example 243, 4-{2-[4-Chloro-3-(piperidin-4-ylmethoxy)-phenylamino]-benzoxazol-5-yloxy}-pyridine-2-carboxylic acid methylamide]", "IC50": "< 100"}
{"smiles": "CNC(=O)c1cc(Oc2ccc3oc(Nc4ccc(Cl)c(OCC5CCN(C(C)C)CC5)c4)nc3c2)ccn1", "note": "[Example 244, 4-{2-[4-Chloro-3-(1-isopropylpiperidin-4-ylmethoxy)-phenylamino]-benzoxazol-5-yloxy}-pyridine-2-carboxylic acid methyl amide]", "IC50": "< 100"}
{"smiles": "CNC(=O)c1cc(Oc2cc(Cl)c3oc(Nc4ccc(Cl)c(CN5CCN(C)CC5)c4)nc3c2)ccn1", "note": "[Example 245, 4-{7-Chloro-2-[4-chloro-3-(4-methyl-piperazin-1-ylmethyl)-phenylamino]-benzoxazol-5-yloxy}-pyridine-2-carboxylic acid methyl amide]", "IC50": "< 100"}
{"smiles": "CNC(=O)c1cc(Oc2ccc3oc(Nc4ccc(Cl)c(CN5CCN(CCN(C)C)CC5)c4)nc3c2)ccn1", "note": "[Example 246, 4-[2-{4-Chloro-3-[4-(2-dimethylamino-ethyl)-piperazin-1-ylmethyl]-phenylamino}-benzoxazol-5-yloxy)-pyridine-2-carboxylic acid methylamide]", "IC50": "< 100"}
{"smiles": "CC(C)N1CCC[C@H]1COc1cc(Nc2nc3cc(Oc4ccnc5[nH]ccc45)ccc3o2)ccc1Cl", "note": "[Example 247, S-[4-Chloro-3-(1-isopropylpyrrolidin-2-ylmethoxy)-phenyl]-[5-(1H-pyrrolo[2,3-b]pyridin-4-yloxy)-benzoxazol-2-yl]-amine]", "IC50": "< 100"}
{"smiles": "CCN(CC)CCOc1cc(Nc2nc3cc(Oc4ccnc(C(=O)NC)c4)ccc3o2)ccc1Cl", "note": "[Example 248, 4-{2-[4-Chloro-3-(2-diethylamino-ethoxy)-phenylamino]-benzoxazol-5-yloxy}-pyridine-2-carboxylic acid methylamine]", "IC50": "< 100"}
{"smiles": "CNC(=O)c1cc(Oc2ccc3oc(Nc4ccc(Cl)c(OCCN(C)C)c4)nc3c2)ccn1", "note": "[Example 249, 4-{2-[4-Chloro-3-(2-dimethylamino-ethoxy)-phenylamino]-benzoxazol-5-yloxy}-pyridine-2-carboxylic acid methylamide]", "IC50": "< 100"}
{"smiles": "CNC(=O)c1cc(Oc2ccc3oc(Nc4ccc(Cl)c(OC[C@@H]5CCCN5C(C)C)c4)nc3c2)ccn1", "note": "[Example 252, 4-{2-[4-Chloro-3-((2S)-1-isopropyl-pyrrolidin-2-ylmethoxy)-phenylamino]-benzooxazol-5-yloxy}-pyridine-2-carboxilic acid methylamide]", "IC50": "< 100"}
{"smiles": "CN1CCN(Cc2cc(Nc3nc4cc(Oc5ccnc6ccccc56)cc(Cl)c4o3)ccc2Cl)CC1", "note": "[Example 257, [4-Chloro-3-(4-methyl-piperazin-1-ylmethyl)-phenyl]-[7-chloro-5-(quinolin-4-yloxy)-benzoxazol-2-yl]-amine]", "IC50": "< 100"}
